The target in series [1] is T1, TRPV1 expressing rat trigeminal neurons (Rattus norvegicus, UniProt O35433).
T1 construct: The ganglia were then dissociated into single cells; endogenous in cells; host or cells: primary cultured trigeminal ganglia neurons from newborn rats
Kind of series: Ca2+ fluorescence measurements in cultured rat trigeminal ganglia neurons (capsaicin-induced calcium mobilisation). The format is cell-based. The conditions noted are these: for IC50: against capsaicin (0.1 μM)-induced calcium mobilisation, 10 minutes incubation prior to capsaicin, mean and 95% fiducial limits. How it is done: Newborn rats (2 days old) were terminally anaesthetized and decapitated. The trigeminal ganglia were removed and rapidly placed in cold phosphate buffered solution (PBS) before being transferred to collagenase/dispase (1 mg/ml dissolved in Ca^2+—Mg^2+-free PBS) for 35 min at 37° C. (Rigoni et al, 2003). After the enzymatic treatment ganglia were rinsed three times with Ca^2+—Mg^2+-free PBS and then placed in 2 ml of cold DMEM supplemented with 10% foetal bovine serum (FBS, heat inactivated), 2 mM L-glutamine, 100 u/ml penicillin and […] streptomycin. The ganglia were then dissociated into single cells by several passages through a series of syringe needles (23 G down to 25 G). Finally, the complex of medium and ganglia cells were sieved through a […] filter to remove debris and topped up with 8 ml of DMEM medium and centrifuged (200×g for 5 min). The final cell pellet was re-suspended in DMEM medium (supplemented with 100 ng/ml mouse Nerve Growth Factor (mouse-NGF-7S) and cytosine-b-D-arabino-furanoside free base (ARA-C) 2.5 mM). Cells were plated on poly-L-lysine (8.3 mM) and laminin (5 mM) coated 25 mm glass cover slips and kept for 2 to 5 days at 37° C. in a humidified incubator gassed with 5% CO2 and air. Plated neurons were loaded with Fura-2-AM-ester (3 μM) in Ca^2+ buffer solution of the following composition (mM): CaCl2 1.4, KCl 5.4, MgSO4 0.4, NaCl 135, D-glucose 5, HEPES 10 with BSA 0.1%, at pH 7.4, for 40 min at 37° C., washed twice with the Ca^2+ buffer solution and transferred to a chamber on the stage of Nikon eclipse TE300 microscope. The dye was excited at 340 and 380 nm to indicate relative [Ca^2+]i changes by the F340/F380 ratio recorded with a dynamic image analysis system (Laboratory Automation 2.0, RCS, Florence, Italy). Capsaicin (0.1 μM) and ionomycin (5 μM) were added to the chamber. A calibration curve using a buffer containing Fura-2-AM-ester and determinant concentrations of free Ca^2+ (Kudo et al., 1986) was used to convert the data obtained from F340/F380 ratio to [Ca^2+]i (nM).
The effects of all compounds were tested against capsaicin-induced calcium mobilisation. Antagonistic compounds were incubated for 10 minutes prior to the capsaicin challenge. The inhibitory effect of the TRPV1 antagonist, capsazepine, was also tested.
A general note: A change in cytosolic calcium serves as a functional read-out for many receptors and channels.

The target of series [2] is T2, TRPV1 receptor expressed in rat spinal cord (Rattus norvegicus, UniProt O35433).
T2 construct: spinal cord was removed and disrupted using a Polytron tissue homogenizer; from tissue; host or cells: rat spinal cord membranes (Sprague-Dawley)
Nature of the series: [3H]-RTX competition binding assay. The conditions noted are these: for Ki: [3H]-RTX (0.4 nM) competition, rat spinal cord membranes, mean and 95% fiducial limits; for affinity for the TRPV1 receptor: in vitro, summary statement. As to the method: Male Sprague-Dawley rats with body weight between 250 to 350 g at the time for testing were used. For binding assays rats were sacrificed by decapitation under anesthesia and spinal cord was removed and disrupted using a Polytron tissue homogenizer in ice cold buffer containing 5 mM KCl, 5.8 mM NaCl, 0.75 mM CaCl2, 2 mM MgCl2, 320 mM sucrose, 10 mM Hepes, pH 8.6 (Szallasi and Blunberg, 1992; 1993). Tissue homogenized was centrifuged at 1000×g for 10 min at 4° C. and the sumatant was centrifuged again at 35000×g for 30 min at 4° C. (Beckman Avanti J25). The pellet was resuspended in the same buffer as described above and used in binding experiments. In saturation experiments, 150 μg protein/sample from membrane suspensions were incubated with ([^3H]-Resiniferatoxin, Perkin Elmer, Boston, Mass.) [^3H]-RTX (0.003-3 nM) in the assay buffer containing 0.25 mg/ml fatty acid-free bovine serum albumin at 37° C. for 60 min. In competition experiments, the membranes were incubated at 37° C. for 60 min with [^3H]RTX (0.4 nM) and increasing concentrations of examined compounds in the range from 0.1 nM to 3 μM. Non specific binding was defined in the presence of 1 μM RTX. After incubation the reaction mixture was cooled at 0° C. and incubated with bovine α1-acid glycoprotein (200 μg per tube) for 15 min to reduce non-specific RTX binding. Membrane-bound RTX was separated from the free through the centrifugation of the samples at 18500×g for 15 min. The tip of the microcentrifuge tube containing the pellet was cut off and the radioactivity was determined by scintillation counting (Packard 2500 TR). The protein concentration was determined according to a Bio-Rad method with bovine serum albumin as a standard reference (Bradford, 1976). Saturation and competition studies were analyzed with the program Ligand (Munson and Rodbard, 1980).

Series [3] has as its system capsaicin-induced wiping behaviour. Nature of the series: Wiping test in rats (capsaicin-induced wiping). The format is in vivo, rat. As to the method:
The irritant effect (induction of wiping movements) of capsaicin was assessed by applying capsaicin 3 μg/eye (10 μl) on the rat conjunctiva and the number of wiping movements was recorded during the 60 sec period that followed the application. In other set of experiments, rats were treated intraperitoneally with diverse doses of 14 and capsaicin-induced wiping was studied.

The structures appear in SMILES notation.

T1 sequence (O35433 whole entry): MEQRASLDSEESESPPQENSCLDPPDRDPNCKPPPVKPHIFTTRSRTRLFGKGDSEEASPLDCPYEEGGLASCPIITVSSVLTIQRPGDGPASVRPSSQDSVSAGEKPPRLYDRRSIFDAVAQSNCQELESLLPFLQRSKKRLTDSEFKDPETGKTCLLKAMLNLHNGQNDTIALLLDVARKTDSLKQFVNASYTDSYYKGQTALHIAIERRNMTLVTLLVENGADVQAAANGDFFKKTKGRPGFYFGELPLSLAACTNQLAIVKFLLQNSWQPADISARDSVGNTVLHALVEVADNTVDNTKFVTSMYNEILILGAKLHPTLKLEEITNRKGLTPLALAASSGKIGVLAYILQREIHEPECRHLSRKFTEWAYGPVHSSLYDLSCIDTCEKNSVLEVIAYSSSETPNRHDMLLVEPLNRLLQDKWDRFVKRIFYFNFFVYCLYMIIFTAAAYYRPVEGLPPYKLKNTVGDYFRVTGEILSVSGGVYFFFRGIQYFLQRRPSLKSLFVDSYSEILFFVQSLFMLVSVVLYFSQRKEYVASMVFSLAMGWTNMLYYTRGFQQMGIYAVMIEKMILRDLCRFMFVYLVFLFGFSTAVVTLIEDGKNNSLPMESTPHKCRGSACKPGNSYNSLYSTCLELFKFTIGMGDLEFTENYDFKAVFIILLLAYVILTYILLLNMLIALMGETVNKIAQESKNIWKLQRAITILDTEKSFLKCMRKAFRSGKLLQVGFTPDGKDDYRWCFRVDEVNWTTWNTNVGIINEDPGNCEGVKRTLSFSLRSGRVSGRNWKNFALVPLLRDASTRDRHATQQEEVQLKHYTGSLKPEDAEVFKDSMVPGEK
T2 sequence (O35433 whole entry): as above

For `COc1cc(CNC(=O)CCCC/C=C/C(C)C)ccc1O` [Capsaicin, capsaicin, reference compound], the “rat trigeminal neuronal cells showing an increase in [Ca2+]i” value in series [1] (capsaicin 0.1 μM) was determined as 87%.

Regarding `Oc1cc2c(cc1O)CN(C(=S)NCCc1ccc(Cl)cc1)CCC2` [Capsazepine, capsazepine, reference compound], the IC50 (usually the point on the concentration scale where inhibition reaches its midpoint) in series [1] was 2170 nM.

As for `COc1cc(CNS(=O)(=O)c2ccc(NC(=S)NCc3ccc(C(C)(C)C)cc3)cc2)c(I)cc1O` [Compound 14, N-(4-t-butyl-benzyl)-N′-[4-(2-iodo-4-hydroxy-5-methoxy-benzyl)aminosulfonyl]phenyl thiourea], in series [2], the affinity corresponds to a Ki of 90 nM and the “affinity for the TRPV1 receptor” value is “significantly greater than that of the classic TRPV1 receptor antagonist, capsazepine”. Further, the IC50 in series [1] was 60 nM. In series [3] (1 mg/kg intraperitoneal, 60 minutes prior to the capsaicin challenge (3 μg/eye)), the “inhibition of capsaicin-induced wiping behaviour” value amounted to 24%. The “effect on capsaicin-induced wiping behaviour” value in series [3] (intraperitoneal, 60 minutes prior to the capsaicin challenge, diverse doses) was “dose dependent reduction”.

Take `COc1cc(CNS(=O)(=O)c2ccc(NC(=S)NCc3ccc(C(F)(F)F)cc3)cc2)c(Cl)cc1O` [Compound 19, N-(4-trifluoromethyl-benzyl)-N′-[4-(2-chloro-4-hydroxy-5-methoxy-benzyl)aminosulfonyl]phenyl thiourea]: the melting point (usually the temperature, or range, at which the solid turns liquid) is 122 °C. Further, in series [2], the inhibition constant (Ki) (commonly the dissociation constant of the complex between target and ligand, obtained from inhibition or displacement) amounted to 756 nM; the “affinity for the TRPV1 receptor” value is “high affinity”. In series [1], the IC50 is 270 nM.

As for `COc1cc(CNS(=O)(=O)c2ccc(NC(=S)NCc3ccc(C(C)(C)C)cc3)cc2)c(Br)cc1O` [Compound 20, N-(4-t-butyl-benzyl)-N′-[4-(2-bromo-4-hydroxy-5-methoxy-benzyl)aminosulfonyl]phenyl thiourea], in series [2], the Ki came to 493 nM and the “affinity for the TRPV1 receptor” value is reported as “high affinity”. For the same molecule, in series [1], the IC50 was found to be 212 nM.

As to `COc1cc(CNS(=O)(=O)c2ccc(CCNC(=S)NCc3ccc(C(C)(C)C)cc3)cc2)c(I)cc1O` [Compound 32, N-(4-t-butyl-benzyl)-N′-[4-(2-iodo-4-hydroxy-5-methoxy-benzyl)aminosulfonyl-2-phenylethyl]thiourea], the melting point amounted to 195 °C.

`COc1cc(CNS(=O)(=O)c2ccc(CCNC(=S)NCc3ccc(C(F)(F)F)cc3)cc2)c(I)cc1O` [Compound 33, N-(4-trifluoromethyl-benzyl)-N′-[4-(2-iodo-4-hydroxy-5-methoxy-benzyl)aminosulfonyl-2-phenylethyl]thiourea] returned a melting point of 186 °C.

The record behind these values is patent US7579378B2, “Sulfonamido compounds that antagonize the vanilloid TRPV1 receptor” (Pharmeste S.R.L., priority 2004, dated 2009).
